Test results as given in DBAASP.
≈ marks a conversion by molar mass, not a printed value.

How the values were obtained:
Experiment in all cases: ≥ marks a high value that may be exact or a test limit, other limits are often not marked, values filed in µg/mL are converted to µM
Escherichia coli K-12 = test system: Escherichia coli K-12
Streptococcus uberis = test system: Streptococcus uberis
Leuconostoc lactis = test system: Leuconostoc lactis
[1] = test system: Staphylococcus aureus USA 300
[2] = test system: Micrococcus luteus ATCC 10240
Escherichia coli BL21AI = test system: Escherichia coli BL21AI
Escherichia coli D31 = test system: Escherichia coli D31
[3] = test system: Klebsiella pneumoniae K6 ATCC 700603
[4] = test system: Salmonella enterica subsp. enterica serovar Typhimurium ATCC 700408
[5] = test system: Staphylococcus aureus ATCC 43300
Salmonella sp. = test system: Salmonella sp.
[6] = test system: Escherichia coli ATCC 25922
Yersinia enterocolitica = test system: Yersinia enterocolitica
[7] = test system: Staphylococcus aureus ATCC 29213
[8] = test system: Pseudomonas aeruginosa ATCC 27853
Escherichia coli = test system: Escherichia coli
[9] = test system: Salmonella enterica subsp. enterica serovar Enteritidis
Escherichia coli UB1005 = test system: Escherichia coli UB1005
[10] = test system: Lacticaseibacillus rhamnosus 1.0911
[11] = test system: Lactiplantibacillus plantarum 8014
[12] = test system: Lacticaseibacillus rhamnosus 1.0925
[13] = test system: Staphylococcus epidermidis ATCC 12228
[14] = test system: Lacticaseibacillus rhamnosus 1.0386
[15] = test system: Lacticaseibacillus rhamnosus 7469
[16] = test system: Lacticaseibacillus rhamnosus 1.0385
[17] = test system: Staphylococcus aureus ATCC 25923
[18] = test system: Escherichia coli ATCC 11229
[19] = test system: Staphylococcus aureus ATCC 33591
[20] = test system: Klebsiella pneumoniae ATCC BAA-1705
Escherichia coli W3110 = test system: Escherichia coli W3110
[21] = test system: Pseudomonas aeruginosa ATCC 9027
[22] = test system: Candida albicans FRR 5580
Staphylococcus aureus = test system: Staphylococcus aureus

## CC(C)C[C@H](NC(=O)CN)C(=O)N[C@@H](C)C(=O)N[C@@H](CC(=O)O)C(=O)N[C@@H](Cc1ccccc1)C(=O)N[C@@H](CC(C)C)C(=O)N[C@@H](CC(N)=O)C(=O)N[C@@H](CCCCN)C(=O)N[C@@H](C)C(=O)N[C@H](C(=O)NCC(=O)N[C@@H](CCCCN)C(=O)N[C@H](C(=O)N[C@H](C(=O)N[C@@H](CC(=O)O)C(=O)N[C@@H](Cc1ccccc1)C(=O)N[C@H](C(=O)N[C@@H](CCCCN)C(=O)N[C@@H](CO)C(N)=O)C(C)C)C(C)C)C(C)C)C(C)C [GLADFLNKAVGKVVDFVKS]
Escherichia coli K-12
  MIC: ≥ 100 µM
Streptococcus uberis
  MIC: ≥ 50 µM
Leuconostoc lactis
  MIC: 25 µM (≈ 50.2 µg/mL)
[1]
  MIC: ≥ 100 µM

## CC[C@H](C)[C@H](NC(=O)[C@H](Cc1ccc(O)cc1)NC(=O)[C@@H](NC(=O)[C@@H]1CCCN1C(=O)[C@H](CCCN=C(N)N)NC(=O)[C@H](CC(N)=O)NC(=O)[C@H](CC(N)=O)NC(=O)CN)C(C)C)C(=O)N[C@@H](C)C(=O)N[C@@H](CCC(N)=O)C(=O)N1CCC[C@H]1C(=O)N[C@@H](CCCN=C(N)N)C(=O)N1CCC[C@H]1C(=O)N1CCC[C@H]1C(=O)N[C@@H](Cc1cnc[nH]1)C(=O)N1CCC[C@H]1C(=O)N[C@@H](CCCN=C(N)N)C(=O)N[C@@H](CC(C)C)C(N)=O [GNNRPVYIAQPRPPHPRL]
[2]
  MIC: ≥ 60 µM
Escherichia coli BL21AI
  MIC: ≥ 60 µM

## CC[C@H](C)[C@H](NC(=O)[C@H](Cc1ccc(O)cc1)NC(=O)[C@@H](NC(=O)[C@@H]1CCCN1C(=O)[C@H](CCCN=C(N)N)NC(=O)[C@H](CC(N)=O)NC(=O)[C@H](CC(N)=O)NC(=O)CN)C(C)C)C(=O)N1CCC[C@H]1C(=O)N[C@@H](CCC(N)=O)C(=O)N1CCC[C@H]1C(=O)N[C@@H](CCCN=C(N)N)C(=O)N1CCC[C@H]1C(=O)N1CCC[C@H]1C(=O)N[C@@H](Cc1cnc[nH]1)C(=O)N1CCC[C@H]1C(=O)N[C@@H](CCCN=C(N)N)C(=O)N[C@@H](Cc1ccccc1)C(N)=O [GNNRPVYIPQPRPPHPRF]
Escherichia coli D31
  MIC: ≥ 59.7 µM
[3]
  MIC: 29.9 µM (≈ 64 µg/mL)
[4]
  MIC: 1.87 µM (≈ 4 µg/mL)

## NCCCC[C@H](NC(=O)[C@H](CCCCN)NC(=O)[C@H](Cc1ccccc1)NC(=O)[C@H](CCCCN)NC(=O)[C@H](CCCN=C(N)N)NC(=O)[C@H](CCCN=C(N)N)NC(=O)[C@H](Cc1ccccc1)NC(=O)[C@H](CCCCN)NC(=O)[C@@H](N)CCCN=C(N)N)C(N)=O [RKFRRKFKK]
[5]
  MIC: > 50 µM
Salmonella sp.
  MIC: ≥ 50 µM
[6]
  MIC: > 50 µM
Yersinia enterocolitica
  MIC: ≥ 50 µM
[7]
  MIC: > 50 µM
[8]
  MIC: > 50 µM
Escherichia coli
  MIC: > 50 µM
[9]
  MIC: ≥ 50 µM

## NC(=O)[C@H](CCCN=C(N)N)NC(=O)[C@H](CCCN=C(N)N)NC(=O)[C@H](Cc1c[nH]c2ccccc12)NC(=O)[C@H](CS)NC(=O)[C@H](Cc1c[nH]c2ccccc12)NC(=O)[C@H](Cc1c[nH]c2ccccc12)NC(=O)[C@H](Cc1c[nH]c2ccccc12)NC(=O)[C@H](CS)NC(=O)[C@H](Cc1c[nH]c2ccccc12)NC(=O)[C@H](CCCN=C(N)N)NC(=O)[C@@H](N)CCCN=C(N)N [RRWCWWWCWRR]
Escherichia coli UB1005
  MIC: 16 µM (≈ 28.5 µg/mL)
[10]
  MIC: ≥ 64 µM
[5]
  MIC: 4 µM (≈ 7.12 µg/mL)
[6]
  MIC: > 64 µM
[11]
  MIC: 8 µM (≈ 14.2 µg/mL)
[12]
  MIC: ≥ 64 µM
[13]
  MIC: 8 µM (≈ 14.2 µg/mL)
[7]
  MIC: 8 µM (≈ 14.2 µg/mL)
[8]
  MIC: 8 µM (≈ 14.2 µg/mL)
[14]
  MIC: 16 µM (≈ 28.5 µg/mL)
[15]
  MIC: ≥ 64 µM
[16]
  MIC: ≥ 64 µM

## C[C@@H](O)[C@H](NC(=O)[C@H](Cc1c[nH]c2ccccc12)NC(=O)[C@H](Cc1c[nH]c2ccccc12)NC(=O)[C@H](Cc1c[nH]c2ccccc12)NC(=O)[C@@H](NC(=O)[C@H](Cc1c[nH]c2ccccc12)NC(=O)[C@H](CCCN=C(N)N)NC(=O)[C@@H](N)CCCN=C(N)N)[C@@H](C)O)C(=O)N[C@@H](Cc1c[nH]c2ccccc12)C(=O)N[C@@H](CCCN=C(N)N)C(=O)N[C@@H](CCCN=C(N)N)C(N)=O [RRWTWWWTWRR]
Escherichia coli UB1005
  MIC: 2 µM (≈ 3.55 µg/mL)
[10]
  MIC: ≥ 64 µM
[5]
  MIC: 4 µM (≈ 7.1 µg/mL)
[11]
  MIC: ≥ 64 µM
[12]
  MIC: ≥ 64 µM
[13]
  MIC: 2 µM (≈ 3.55 µg/mL)
[8]
  MIC: 4 µM (≈ 7.1 µg/mL)
[14]
  MIC: ≥ 64 µM
[15]
  MIC: ≥ 64 µM
[16]
  MIC: ≥ 64 µM

## CC[C@H](C)[C@H](NC(=O)[C@H](CCCN=C(N)N)NC(=O)[C@H](CCSC)NC(=O)[C@H](C)NC(=O)[C@H](CCCN=C(N)N)NC(=O)CNC(=O)[C@H](C)NC(=O)[C@@H](NC(=O)[C@@H](N)CO)C(C)C)C(=O)NCC(=O)N[C@@H](CC(C)C)C(=O)N[C@@H](CCCN=C(N)N)C(=O)N[C@@H](Cc1ccccc1)C(=O)N[C@H](C(=O)N[C@@H](CC(C)C)C(=O)N[C@@H](CCSC)C(=O)O)C(C)C [SVAGRAMRIGLRFVLM]
[17]
  MIC: 36 µM (≈ 64 µg/mL)
[7]
  MIC: 36 µM (≈ 64 µg/mL)
[18]
  MIC: ≥ 36 µM
[19]
  MIC: ≥ 36 µM

## CC[C@H](C)[C@H](NC(=O)[C@H](CCCCN)NC(=O)[C@H](CCCCN)NC(=O)[C@H](Cc1ccc(O)cc1)NC(=O)[C@H](CCCCN)NC(=O)[C@H](CC(C)C)NC(=O)[C@H](CC(C)C)NC(=O)[C@H](CCCCN)NC(=O)[C@H](CC(C)C)NC(=O)CNC(=O)[C@H](Cc1c[nH]c2ccccc12)NC(=O)[C@H](CS)NC(=O)[C@H](C)NC(=O)[C@H](Cc1c[nH]c2ccccc12)NC(=O)[C@H](CCCN=C(N)N)NC(=O)[C@@H](N)Cc1c[nH]c2ccccc12)C(=O)N[C@@H](Cc1ccc(O)cc1)C(=O)O [WRWACWGLKLLKYKKIY]
[20]
  MIC: ≥ 64 µM
Escherichia coli W3110
  MIC: 1 µM (≈ 2.26 µg/mL)

## NCCCC[C@H](NC(=O)[C@H](Cc1c[nH]c2ccccc12)NC(=O)[C@H](Cc1c[nH]c2ccccc12)NC(=O)[C@H](CCCCN)NC(=O)[C@H](Cc1c[nH]c2ccccc12)NC(=O)[C@H](Cc1c[nH]c2ccccc12)NC(=O)[C@H](CCCN=C(N)N)NC(=O)[C@@H](N)Cc1c[nH]c2ccccc12)C(N)=O [WRWWKWWK]
[21]
  MIC: 23.5 µM (≈ 32 µg/mL)
[6]
  MIC: 2.94 µM (≈ 4 µg/mL)
[17]
  MIC: 5.88 µM (≈ 7.99 µg/mL)
[22]
  MIC: ≥ 47 µM

## NCCCC[C@H](NC(=O)[C@H](Cc1c[nH]c2ccccc12)NC(=O)[C@H](Cc1c[nH]c2ccccc12)NC(=O)[C@H](CCCN=C(N)N)NC(=O)[C@@H](N)Cc1c[nH]c2ccccc12)C(=O)N[C@@H](Cc1c[nH]c2ccccc12)C(=O)N[C@@H](Cc1c[nH]c2ccccc12)C(N)=O [WRWWKWW]
[21]
  MIC: 25.9 µM (≈ 32 µg/mL)
[6]
  MIC: 3.24 µM (≈ 4 µg/mL)
Staphylococcus aureus
  MIC: 6.49 µM (≈ 7.99 µg/mL)
[17]
  MIC: 6.49 µM (≈ 7.99 µg/mL)
[22]
  MIC: ≥ 51.9 µM
